Earlier results, collected in patent publication US9155756B2, “Method for the prevention and treatment of sepsis” (Universiteit Maastricht, priority 2011, dated 2015).

What was measured:
[1] = test system: patients with septic shock; conditions: low dose for 5-7 days
[2] = test system: patients with severe sepsis

Molecule | Clinical outcome [1] | Number needed to treat (NNT) for reduced mortality ([2]; patients with multi-organ failure, large randomized clinical trials) | Mortality ([2]; severe sepsis, decreased from about 31%)
C[C@]12CCC(=O)C=C1CC[C@@H]1[C@@H]2[C@@H](O)C[C@@]2(C)[C@H]1CC[C@]2(O)C(=O)CO [hydrocortisone] | improved outcomes | – | –
drotrecogin alfa | – | 16 | about 25%
